# Bridges are numbered along the chain shown (N, C = ends). Where no end group is shown, it is not given here. dibromoxylene = α,α'-dibromoxylene, used to cyclize the peptide by reaction with its two cysteines
# Assays:
# MS sera = test: PEPSCAN-based ELISA, binding of MS sera to library peptides; design: species or system human; conditions: ELISA binding value, MS sera n = 9
# Description: (§1) The linear and CLIPS peptides are synthesized based on the amino acid sequence of the target protein using standard Fmoc-chemistry and deprotected using […] with scavengers. The constrained peptides are synthesized on chemical scaffolds in order to reconstruct conformational epitopes, using Chemically Linked Peptides on Scaffolds (CLIPS) technology (Timmerman et al. (2007). For example, the single looped peptides are synthesized containing a dicysteine, which was cyclized by treating with alpha, alpha′-dibromoxylene and the size of the loop is varied by introducing cysteine residues at variable spacing. If other cysteines besides the newly introduced cysteines are present, they are replaced by alanine. The side-chains of the multiple cysteines in the peptides are coupled to CLIPS templates by reacting onto credit-card format polypropylene PEPSCAN cards (455 peptide formats/card) with a 0.5 mM solution of CLIPS template such as 1,3-bis (bromomethyl) benzene in ammonium bicarbonate (20 mM, pH 7.9)/acetonitrile (1:1(v/v)). The cards are gently shaken in the solution for 30 to 60 minutes while completely covered in solution. Finally, the cards are washed extensively with excess of H2O and sonicated in distrupt-buffer containing 1 percent SDS/0.1 percent beta-mercaptoethanol in PBS (pH 7.2) at 70° C. for 30 minutes, followed by sonication in H2O for another 45 minutes.
# (§2) The binding of antibody to each peptide is tested in a PEPSCAN-based ELISA. The 455-well credit card format polypropylene cards containing the covalently linked peptides are incubated with primary antibody solution for example consisting of 1/1000 diluted serum in blocking solution, for example 4% horse serum, 5% ovalbumin (w/v) in PBS/1% Tween. After washing, the peptides are incubated with a 1/1000 dilution of antibody peroxidase conjugate for one hour at 25° C. After washing, the peroxidase substrate 2,2′-azino-di-3-ethylbenzthiazoline sulfonate (ABTS) and 2 microlitres of 3 percent H2O2 are added. After one hour, the color development are measured. The color development are quantified with a charge coupled device (CCD)-camera and an image processing system (Slootstra et al., 1996).
# (§3) The raw data are optical values obtained by a CCD-camera calibrated to export absorption values compatible with a standard 96-well plate ELISA-reader. First the CCD-camera makes a picture of the card before peroxidase coloring and then again a picture after the peroxidase coloring. These two pictures are substracted from each other yielding a binding value for each peptide.
# (§4) All peptides have been synthesized in a peptide array format and the binding of 20 different sera to all peptide libraries were measured in an ELISA based set up following the procedure described in detail in the method section “Peptide synthesis and screening assays”. In particular 2 sets of experiments were performed on the 2 libraries by using 2 different dilutions of the human patients sera. In the first set of experiment the 20 sera were used at 1:2500 dilutions, while in the second experiment the dilution of the sera was 1:1000. The binding of the different sera to all peptides was quantified and analyzed in detail (Tables 1 and 2, FIGS. 15A, B, C, D and […]
# CTRL sera = test: PEPSCAN-based ELISA, binding of control (CTRL) sera to library peptides; design: species or system human; conditions: ELISA binding value, CTRLs n = 10
# Description: as §1, §2, §3, §4
Sequence,MEAN MS (MS sera; NOX2 library),MEAN CTRL (CTRL sera; NOX2 library),MEAN MS (MS sera; 5HT2A receptor library),MEAN CTRL (CTRL sera; 5HT2A receptor library)
CVRGQTAESLAVHNITCVHNITVSEQKISEWGC [SEQ ID NO: 148],445.278,263.5,,
CQNESYLNFARKRIKNCSYLNFARKRIKNPEGC [SEQ ID NO: 135],711.556,396.7,,
CLTILYGYRWPLPSCLYGYRWPLPSKLSC [Peptide 40],,,879.72,508.45
CESLAVHNITVSEQKICSYLNFARKRIKNPEGC [SEQ ID NO: 79],639.611,357.1,,
CNITVSEQKISEWGKICGDRQNESYLNFARKRC [SEQ ID NO: 144],816.722,446.7,,
GKIKECPIP [SEQ ID NO: 102],594.611,324.35,,
CLSPSSLSLLHLQECTVDSENRTNLSSEC [Peptide 27],,,427.89,263.00
CQKISEWGKIKESPIPCTVSEQKISEWGKIKEC [SEQ ID NO: 93],846.833,476.45,,
CPYSVALSELGDRQNECITVSEQKISEWGKIKC [SEQ ID NO: 124],824.056,469.75,,
CNFARKRIKNC [SEQ ID NO: 60],748.389,374.6,,
CGDRQNESYLNFARKRCQNESYLNFARKRIKNC [SEQ ID NO: 70],831.278,412.7,,
CAVHNITVSEQKISEWCSYLNFARKRIKNPEGC [SEQ ID NO: 133],648.556,375.55,,
RQNESYLNFARKRIK [SEQ ID NO: 76],458.833,241.2,,
NESYLNFARKRIKNP [SEQ ID NO: 109],602.889,333.75,,
CNSLMQLNDDTRLYCMDILSEENTSLSSC [Peptide 1],,,445.78,252.10
CLNFARKRIKNAAGGLC [SEQ ID NO: 92],691.444,367,,
CNFARKRIKNPEGGLYCQNESYLNFARKRIKNC [SEQ ID NO: 65],801.056,410.85,,
CLYGYRWPLPSKLSCSDAFNWTVDSENRC [Peptide 36],,,511.11,298.55
YLNFARKRIKAAEGG [SEQ ID NO: 119],299.167,181.3,,
CGDRQNESYLNFARKRCSYLNFARKRIKNPEGC [SEQ ID NO: 131],730.222,401.95,,
LGDRQNESYLNFARK [SEQ ID NO: 104],457.556,252.4,,
LNFARKRIKNAAGGL [SEQ ID NO: 91],354.778,187.85,,

Sequence,MEAN MS (MS sera; NOX2 library),MEAN CTRL (CTRL sera; NOX2 library),MEAN MS (MS sera; 5HT2A receptor library),MEAN CTRL (CTRL sera; 5HT2A receptor library)
CVRGQTAESLAVHNITCQNESYLNFARKRIKNC [SEQ ID NO: 66],824.500,438.35,,
CLSEENTSLSSTTNCMDILSEENTSLSSC [Peptide 39],,,303.50,184.40
CNDDTRLYSNDFNSCMDILSEENTSLSSC [Peptide 24],,,350.67,196.45
CVALSELGDRQNESYLCQNESYLNFARKRIKNC [SEQ ID NO: 110],761.778,406.75,,
CTVDSENRTNLSSECMDILSEENTSLSSC [Peptide 13],,,300.11,160.80
CLTILYGYRWPLPSCKESSNEDVIGALLC [Peptide 12],,,629.14,350.93
GDRQNESYLNFARKR [SEQ ID NO: 120],325.333,163.95,,
CMDILSEENTSLSSCMQLNDDTRLYSNDC [Peptide 21],,,392.28,223.85
FARKRIKNP [SEQ ID NO: 67],666.111,337.4,,
CKISEWGKIKC [SEQ ID NO: 108],672.833,367.95,,
CHGAERIVRGQTAESLCQKISEWGKIKESPIPC [SEQ ID NO: 101],734.917,407.625,,
CNFARKRIKNPEGGLYCSLAVHNITVSEQKISC [SEQ ID NO: 106],599.000,330.8,,
CDSKVFKEGSSLLACSENRTNLSSEGSLC [Peptide 46],,,512.94,296.70
CRVNNSDPYSVALSELCQNESYLNFARKRIKNC [SEQ ID NO: 137],743.167,398.05,,
CDSKVFKEGSSLLACMDILSEENTSLSSC [Peptide 28],,,429.00,236.60
CSTTNSLMQLNDDTCMDILSEENTSLSSC [Peptide 11],,,321.28,186.85
CERIVRGQTAESLAVHCQNESYLNFARKRIKNC [SEQ ID NO: 75],833.444,455.55,,
CEWSVNARVNNSDPYSCVSEQKISEWGKIKESC [SEQ ID NO: 155],760.083,433.775,,
CGDRQNESYLNFARKRCGDRQNESYLNFARKRC [SEQ ID NO: 85],775.500,404.05,,
CENTSLSSTTNSLMCMDILSEENTSLSSC [Peptide 17],,,316.22,175.00
CITVSEQKISEAAKIKC (linker 1-17 via dibromoxylene (inferred)) [SEQ ID NO: 147],703.000,383.25,,
CQTAESLAVHNITVSECQNESYLNFARKRIKNC [SEQ ID NO: 100],697.667,367.45,,

Sequence,MEAN MS (MS sera; NOX2 library),MEAN CTRL (CTRL sera; NOX2 library),MEAN MS (MS sera; 5HT2A receptor library),MEAN CTRL (CTRL sera; 5HT2A receptor library)
CLSPSSLSLLHLQECMDILSEENTSLSSC [Peptide 10],,,305.00,183.45
CNITVSEQKISEWGKICQNESYLNFARKRIKNC [SEQ ID NO: 81],770.889,408.8,,
CVRGQTAESLAVHNITCITVSEQKISEWGKIKC [SEQ ID NO: 134],758.278,440.5,,
CEWSVNARVNNSDPYSCPYSVALSELGDRQNEC [SEQ ID NO: 72],428.167,225.5,,
CVFKEGSSLLADDNCSDAFNWTVDSENRC [Peptide 47],,,399.89,244.50
DPYSVALSELGDRQN [SEQ ID NO: 132],300.556,177.25,,
CVSEQKISEWGKIKESCEQKISEWGKIKESPIC [SEQ ID NO: 84],811.056,443.5,,
CRQNESYLNFARKRIKC [SEQ ID NO: 95],653.944,350.1,,
DPYSVALSELAARQN [SEQ ID NO: 78],565.389,325.05,,
CQKISEWGKIKESPIPCVHNITVSEQKISEWGC [SEQ ID NO: 149],442.611,263.25,,
CLYGYRWPLPSKLSCMDILSEENTSLSSC [Peptide 4],,,449.78,246.80
CLTILYGYRWPAASKLC [Peptide 41],,,782.33,449.80
QKISEWGKIKAAPIP [SEQ ID NO: 88],701.889,364.3,,
NESYLNFARKAAKNP [SEQ ID NO: 62],505.278,279.1,,
CLTILYGYRWPLPSKLC [Peptide 35],,,792.94,475.00
QDDSKVFKEGAALLA [Peptide 33],,,439.11,263.70
QNESYLNFARAAIKN [SEQ ID NO: 113],421.722,244,,
CVSEQKISEWGKIKESCGDRQNESYLNFARKRC [SEQ ID NO: 112],846.778,462.45,,
QKISEWGKI [SEQ ID NO: 146],508.333,298.2,,
CMDILSEENTSLSSCSKESSNEDVIGALC [Peptide 44],,,432.33,266.55

# From US11505592B2, “Diagnosis and therapy of multiple sclerosis” (PRINDEX S.R.L., priority 2015, dated 2022)
